A short description of data set [1]: Retention/recovery of [19F]DCFPyL on the HLB solvent exchange cartridge as a function of pH (load, wash, product samples). Format: physicochemical. How it is done: The goal of this study was to characterize the impact of pH on the retention of [^18F]DCFPyL on the HLB solvent exchange cartridge. […] The pH of one solution was adjusted to 2 and a second to 4 by adding 1N HCl. A third solution was used without adjusting its native pH of 7.2. Using a BD syringe, 10 mL of each solution was spiked with [^19F]DCFPyL (50 μg) by adding 0.5 mL of a 100 μg/mL stock solution. Each spiked solution was loaded onto a HLB cartridge at a rate of approximately 2 mL/min. […] The eluent from each HLB cartridge was individually collected and identified as the “wash solution.” Each HLB cartridge was then individually eluted with 1 mL of ethanol, the samples collected and are identified as the “product sample.” The load solution and wash solution samples were analyzed using a drug product chemical impurity assay after a 1 to 10 mL dilution with saline, while the ethanolic product samples were analyzed following a 0.5 to 10 dilution with saline.
The goal of this study was to characterize the impact of pH on the retention of ^18F-DCFPyL on the HLB solvent exchange cartridge. […] The pH of one solution was adjusted to 2 and a second to 4 by adding 1N HCl. A third solution was used without adjusting its native pH of 7.2. At this pH the solution will be mainly sodium ascorbate. Using a BD syringe, 10 mL of each solution was spiked with ^19F-DCFPyL (50 μg) by adding 0.5 mL of a 100 μg/mL stock solution. Each spiked solution was loaded onto an HLB cartridge at a rate of approximately 2 mL/min and the solution collected after the HLB column is identified as the load solution. […] Each HLB cartridge was then individually eluted with 1 mL of ethanol, the solution collected after the HLB column is identified as the product sample. The load solution and wash solution samples were analyzed using the drug product chemical impurity assay after a 1 to 10 mL dilution with saline, while the ethanolic product samples were analyzed following a 0.5 to 10 mL dilution with saline.

Data set [2] can be described thus: HPLC/UV (264 nm) chemical impurity assay; ascorbic acid related impurity. Format: physicochemical. The settings on record: development lot at 163.0 mCi/mL with ascorbic acid. The method, then:
Analytical HPLC method was used. The method employs UV detection at 264 nm for chemical impurities, and an Eckert & Ziegler model B-FC-1000 gamma detector for radiochemical assays.
Since the peak has not been previously observed in preparations in the absence of ascorbic acid it is likely ascorbic acid related and was further investigated. A decayed sample from the lot produced was analyzed further and confirmed the presence of the peak, FIG. 35. […] The sample was assayed for chemical impurities at T=0, 4, 10 and 24 hours when held inverted at ambient conditions. […] The impurity only formed with radioactivity exposure but not when stored in light or dark at ambient conditions (see FIG. 37).

As to `O=C(O)CC[C@H](NC(=O)N[C@@H](CCCCNC(=O)c1ccc([18F])nc1)C(=O)O)C(=O)O` [Lot 18F-DCFPyL, 2-(3-{1-carboxy-5-[(6-[18F]fluoro-pyridine-3-carbonyl)-amino]-pentyl}ureido)-pentanedioic acid], the figures for the “retention of [18F]-DCFPyL by the HLB cartridge” value in data set [1] (pH 2) and in data set [1] (pH 4) were 98% and 81%, respectively. In addition, in data set [2], the “chemical impurity at retention time approximately 4.6 minutes on the UV trace” value came to 0.9 µg/mL.

Source of the values: patent US20250019350A1, “SYNTHESIS OF THE PROSTATE SPECIFIC MEMBRANE ANTIGEN (PSMA) RADIOLABELED INHIBITOR [18F]DCFPYL” (Progenics Pharmaceuticals, Inc, priority 2023, published 2025).
